Results reported in patent US11325889B2, “Substituted 3-((3-aminophenyl)amino)piperidine-2,6-dione compounds, compositions thereof, and methods of treatment therewith” (Celgene Corporation, priority 2018, dated 2022).
Where two headings read alike, the source gives them in different places.

Target: T1, AR protein in VCaP cells (Homo sapiens, UniProt P10275)
T1 construct: endogenous in cells; host or cells: VCaP cells
T1 sequence (P10275 1-920): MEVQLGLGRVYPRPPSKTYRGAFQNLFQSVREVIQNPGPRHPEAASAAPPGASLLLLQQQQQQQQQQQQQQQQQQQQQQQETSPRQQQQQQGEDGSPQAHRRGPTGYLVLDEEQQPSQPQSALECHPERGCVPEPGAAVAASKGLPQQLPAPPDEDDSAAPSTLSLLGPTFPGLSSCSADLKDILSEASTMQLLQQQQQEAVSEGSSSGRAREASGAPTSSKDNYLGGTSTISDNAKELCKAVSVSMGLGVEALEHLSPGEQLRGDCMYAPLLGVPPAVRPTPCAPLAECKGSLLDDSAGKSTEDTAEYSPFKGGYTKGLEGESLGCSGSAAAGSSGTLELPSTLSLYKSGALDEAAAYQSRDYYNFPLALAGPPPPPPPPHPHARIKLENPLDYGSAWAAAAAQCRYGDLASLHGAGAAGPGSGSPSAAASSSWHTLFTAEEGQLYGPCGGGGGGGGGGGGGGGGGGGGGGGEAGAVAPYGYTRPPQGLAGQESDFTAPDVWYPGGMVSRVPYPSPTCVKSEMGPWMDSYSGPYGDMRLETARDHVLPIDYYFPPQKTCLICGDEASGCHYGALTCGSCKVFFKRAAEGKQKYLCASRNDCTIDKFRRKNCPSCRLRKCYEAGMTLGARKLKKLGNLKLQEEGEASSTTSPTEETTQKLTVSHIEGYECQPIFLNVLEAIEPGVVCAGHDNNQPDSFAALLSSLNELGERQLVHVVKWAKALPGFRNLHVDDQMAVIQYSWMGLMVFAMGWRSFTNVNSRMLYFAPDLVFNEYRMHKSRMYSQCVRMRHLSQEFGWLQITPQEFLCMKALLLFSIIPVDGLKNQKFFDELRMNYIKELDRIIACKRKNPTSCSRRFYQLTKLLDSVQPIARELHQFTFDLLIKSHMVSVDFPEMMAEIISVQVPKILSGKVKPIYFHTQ
Experiment: VCAP AR Degradation Assay (AR ELISA, 24 h)
Assay type: cell-based
Details: for Y (lowest measured AR level normalized to DMSO control): AR degradation efficiency; for DC50: concentration of compound when AR level = 50% of DMSO control
Experimental: VCAP AR Degradation Assay.
Test compounds were pre-dispensed into a Corning CellBind 96-well clear bottom plate (Cat #3300) using an acoustic dispenser to make a 10-point concentration series at 1:3 dilution for each compound. The final top concentration of each compound was […]. DMSO at a final concentration of 0.1% was used as a control. VCaP cells cultured in DMEM with 8% fetal bovine serum (FBS) were seeded at 50K cells per well in a 200 μL volume into the compound plate and incubated at 37° C. in a CO2 incubator for 24 h. The medium was carefully removed from the cells and the plate was placed on ice. One hundred […] of ice-cold 1× cell lysis buffer from Cell Signaling Technologies (Cat #9803) was added to each well of the cells and the plate was incubated at 4° C. on a shaker for 1 h. Fifteen […] of cell lysate was used for AR ELISA detection using a PathScan Total Sandwich AR ELISA kit (Cell Signaling Technology, Cat #12580). AR levels in compound-treated wells were normalized to that of DMSO control and expressed as percent of control (PoC) (y). A Four Parameter Logistic Model (Sigmoidal Dose-Response Model) was used to determine the compound's DC50, and EC50, using the following equation: y=(A+((B−A)/(1+((C/x)^D)))) • A=YMin (lowest AR level normalized to DMSO control in response to compound • treatment, as determined by curve fit) • B=YMax (maximum AR level as determined by curve fit) • C=EC50 • D=Hill Slope • x=compound concentration • EC50=the concentration of compound when y=(YMax−YMin)/2 • DC50=the concentration of the compound when y=50% of DMSO control (50% AR degradation) • y=AR protein level normalized to DMSO control
The lowest measured AR level normalized to DMSO control in response to compound treatment, termed Y value, was used to characterize the compound-mediated AR degradation efficiency.

`CCc1cc(N2C(=S)N(c3cnc(C#N)c(C(F)(F)F)c3)C(=O)C23CCC3)ccc1OCC[C@H]1C[C@H]2CC[C@@H](C1)N2CC(=O)Nc1cccc(NC2CCC(=O)NC2=O)c1` (single isomer, unassigned) [Cmpd 67] was tested, and the “Y (lowest measured AR level normalized to DMSO control)” value was “** (25%<Y<=35%)” and the DC50 was under 0.1 µM.
With `CCc1cc(N2C(=S)N(c3cnc(C#N)c(C(F)(F)F)c3)C(=O)C2(C)C)ccc1OCCC1CCN([C@H](C)C(=O)Nc2cc(Cl)cc(NC3CCC(=O)NC3=O)c2)CC1` (stereo partly drawn) [Cmpd 25, (2R)-N-(3-chloro-5-(2,6-dioxopiperidin-3-ylamino)phenyl)-2-(4-(2-(4-(3-(6-cyano-5-(trifluoromethyl)pyridin-3-yl)-5,5-dimethyl-4-oxo-2-thioxoimidazolidin-1-yl)-2-ethylphenoxy)ethyl)piperidin-1-yl)propanamide] the “Y (lowest measured AR level normalized to DMSO control)” value was “* (0<Y<=25%)” and the DC50 (read-out: DC50) was under 0.1 µM.
For `CCc1cc(N2C(=S)N(c3ccc(C#N)c(C(F)(F)F)c3)C(=O)C2(C)C)ccc1OCCC1CCN([C@H](C)C(=O)Nc2cccc(NC3CCC(=O)NC3=O)c2)CC1` (stereo partly drawn) [Cmpd 42, (2R)-2-(4-(2-(4-(3-(4-cyano-3-(trifluoromethyl)phenyl)-5,5-dimethyl-4-oxo-2-thioxoimidazolidin-1-yl)-2-ethylphenoxy)ethyl)piperidin-1-yl)-N-(3-(2,6-dioxopiperidin-3-ylamino)phenyl)propanamide], the “Y (lowest measured AR level normalized to DMSO control)” value was “** (25%<Y<=35%)” and the DC50 (read-out: DC50) was 0.1 to 0.5 µM.
In the case of `CC1(C)C(=O)N(c2ccc(C#N)c(C(F)(F)F)c2)C(=S)N1c1ccc(OCCC2CCN(CC(=O)Nc3cc(Cl)cc(NC4CCC(=O)NC4=O)c3)CC2)c(CCF)c1` (centres unmarked) [Cmpd 33, N-(3-chloro-5-(2,6-dioxopiperidin-3-ylamino)phenyl)-2-(4-(2-(4-(3-(4-cyano-3-(trifluoromethyl)phenyl)-5,5-dimethyl-4-oxo-2-thioxoimidazolidin-1-yl)-2-(2-fluoroethyl)phenoxy)ethyl)piperidin-1-yl)acetamide], the “Y (lowest measured AR level normalized to DMSO control)” value is reported as “* (0<Y<=25%)” and the DC50 (read-out: DC50) is reported as under 0.1 µM.
`CCc1cc(N2C(=S)N(c3cnc(C#N)c(C(F)(F)F)c3)C(=O)C2(C)C)ccc1OCC[C@H]1CCN(CC(=O)Nc2cc(NC3CCC(=O)NC3=O)ccc2F)[C@H](C)C1` (stereo partly drawn) [Cmpd 77, 2-((2R,4S)-4-(2-(4-(3-(6-cyano-5-(trifluoromethyl)pyridin-3-yl)-5,5-dimethyl-4-oxo-2-thioxoimidazolidin-1-yl)-2-ethylphenoxy)ethyl)-2-methylpiperidin-1-yl)-N-(5-(2,6-dioxopiperidin-3-ylamino)-2-fluorophenyl)acetamide] was tested, and the “Y (lowest measured AR level normalized to DMSO control)” value was “* (0<Y<=25%)” and the DC50 (read-out: DC50) was 0.1 to 0.5 µM.
`CC(F)(F)c1cc(N2C(=S)N(c3ccc(C#N)c(C(F)(F)F)c3)C(=O)C2(C)C)ccc1OCCC1CCN(CC(=O)Nc2cc(Cl)cc(NC3CCC(=O)NC3=O)c2)CC1` (centres unmarked) [Cmpd 30, N-(3-chloro-5-(2,6-dioxopiperidin-3-ylamino)phenyl)-2-(4-(2-(4-(3-(4-cyano-3-(trifluoromethyl)phenyl)-5,5-dimethyl-4-oxo-2-thioxoimidazolidin-1-yl)-2-(1,1-difluoroethyl)phenoxy)ethyl)piperidin-1-yl)acetamide] was tested, and the “Y (lowest measured AR level normalized to DMSO control)” value was “* (0<Y<=25%)” and the DC50 (read-out: DC50) was 0.1 to 0.5 µM.
With `CC(C)c1cc(N2C(=S)N(c3ccc(C#N)c(C(F)(F)F)c3)C(=O)C2(C)C)cnc1OCC[C@H]1C[C@@H](C)N(CC(=O)Nc2cccc(NC3CCC(=O)NC3=O)c2)[C@@H](C)C1` (stereo partly drawn) [Cmpd 94, 2-((2S,4r,6R)-4-(2-((5-(3-(4-cyano-3-(trifluoromethyl)phenyl)-5,5-dimethyl-4-oxo-2-thioxoimidazolidin-1-yl)-3-isopropylpyridin-2-yl)oxy)ethyl)-2,6-dimethylpiperidin-1-yl)-N-(3-((2,6-dioxopiperidin-3-yl)amino)phenyl)acetamide] the “Y (lowest measured AR level normalized to DMSO control)” value was “** (25%<Y<=35%)” and the DC50 (read-out: DC50) was 0.5 to 1 µM.
In the case of `CCc1cc(N2C(=S)N(c3cnc(C#N)c(C(F)(F)F)c3)C(=O)C2(C)C)ccc1OCC[C@@H]1CCN(CC(=O)Nc2cc(NC3CCC(=O)NC3=O)ccc2F)[C@H](C)C1` (stereo partly drawn) [Cmpd 79, 2-((2R,4R)-4-(2-(4-(3-(6-cyano-5-(trifluoromethyl)pyridin-3-yl)-5,5-dimethyl-4-oxo-2-thioxoimidazolidin-1-yl)-2-ethylphenoxy)ethyl)-2-methylpiperidin-1-yl)-N-(5-(2,6-dioxopiperidin-3-ylamino)-2-fluorophenyl)acetamide], the “Y (lowest measured AR level normalized to DMSO control)” value is reported as “** (25%<Y<=35%)” and the DC50 (read-out: DC50) is reported as 0.1 to 0.5 µM.
For `CCc1cc(N2C(=S)N(c3cnc(C#N)c(C(F)(F)F)c3)C(=O)C2(C)C)ccc1OCC1CCN(CC(=O)Nc2cccc(NC3CCC(=O)NC3=O)c2)CC1` (centres unmarked) [Cmpd 80, 2-(4-((4-(3-(6-cyano-5-(trifluoromethyl)pyridin-3-yl)-5,5-dimethyl-4-oxo-2-thioxoimidazolidin-1-yl)-2-ethylphenoxy)methyl)piperidin-1-yl)-N-(3-(2,6-dioxopiperidin-3-ylamino)phenyl)acetamide], the “Y (lowest measured AR level normalized to DMSO control)” value was “** (25%<Y<=35%)” and the DC50 (read-out: DC50) was under 0.1 µM.
With `CCc1cc(N2C(=S)N(c3ccc(C#N)c(C(F)(F)F)c3)C(=O)C2(C)C)ccc1OCC[C@H]1CCN(CC(=O)Nc2cc(NC3CCC(=O)NC3=O)ccc2F)[C@H](C)C1` (stereo partly drawn) [Cmpd 82, 2-((2R,4S)-4-(2-(4-(3-(4-cyano-3-(trifluoromethyl)phenyl)-5,5-dimethyl-4-oxo-2-thioxoimidazolidin-1-yl)-2-ethylphenoxy)ethyl)-2-methylpiperidin-1-yl)-N-(5-(2,6-dioxopiperidin-3-ylamino)-2-fluorophenyl)acetamide] the “Y (lowest measured AR level normalized to DMSO control)” value was “** (25%<Y<=35%)” and the DC50 (read-out: DC50) was 0.1 to 0.5 µM.
For `CCc1cc(N2C(=S)N(c3ccc(C#N)c(C(F)(F)F)c3)C(=O)C2(C)C)ccc1OCC1CCN(CC(=O)Nc2cccc(NC3CCC(=O)NC3=O)c2)CC1` (centres unmarked) [Cmpd 11, 2-(4-((4-(3-(4-cyano-3-(trifluoromethyl)phenyl)-5,5-dimethyl-4-oxo-2-thioxoimidazolidin-1-yl)-2-ethylphenoxy)methyl)piperidin-1-yl)-N-(3-(2,6-dioxopiperidin-3-ylamino)phenyl)acetamide], the “Y (lowest measured AR level normalized to DMSO control)” value was “** (25%<Y<=35%)” and the DC50 (read-out: DC50) was 0.1 to 0.5 µM.
With `CCc1cc(N2C(=S)N(c3cnc(C#N)c(C(F)(F)F)c3)C(=O)C2(C)C)ccc1OCCC1(F)CCN(CC(=O)Nc2cccc(NC3CCC(=O)NC3=O)c2)CC1` (centres unmarked) [Cmpd 89, 2-(4-(2-(4-(3-(6-cyano-5-(trifluoromethyl)pyridin-3-yl)-5,5-dimethyl-4-oxo-2-thioxoimidazolidin-1-yl)-2-ethylphenoxy)ethyl)-4-fluoropiperidin-1-yl)-N-(3-(2,6-dioxopiperidin-3-ylamino)phenyl)acetamide] the “Y (lowest measured AR level normalized to DMSO control)” value was “* (0<Y<=25%)” and the DC50 (read-out: DC50) was under 0.1 µM.
In the case of `CCc1cc(N2C(=S)N(c3ccc(C#N)c(C(F)(F)F)c3)C(=O)C2(C)C)ccc1OCCC1CCN(CC(=O)Nc2cc(F)cc(NC3CCC(=O)NC3=O)c2)CC1` (centres unmarked) [Cmpd 19, 2-(4-(2-(4-(3-(4-cyano-3-(trifluoromethyl)phenyl)-5,5-dimethyl-4-oxo-2-thioxoimidazolidin-1-yl)-2-ethylphenoxy)ethyl)piperidin-1-yl)-N-(3-(2,6-dioxopiperidin-3-ylamino)-5-fluorophenyl)acetamide], the “Y (lowest measured AR level normalized to DMSO control)” value is reported as “* (0<Y<=25%)” and the DC50 (read-out: DC50) is reported as 0.1 to 0.5 µM.
